Data reported in patent US20160228452A1, “TREATMENT OF METABOLIC DISEASES BY INHIBTION OF HTR2A OR HTR3” (Korea Advanced Institute of Science and Technology, priority 2014, published 2016).

Legend:
[1] = target: T1, Htr3 (Mus musculus, UniProt P23979); experiment: cAMP assay (competitive ELISA) in immortalized brown adipocytes; type: cell-based; settings: IBAs, 1 uM ondansetron or 100 nM m-CPBG, 15 min
T1 construct: we explored the direct actions of Htr3 on BAT using immortalized brown adipocytes (IBAs); endogenous in cells; host or cells: differentiated immortalized brown adipocytes (IBAs)
T1 sequence (P23979 24-489): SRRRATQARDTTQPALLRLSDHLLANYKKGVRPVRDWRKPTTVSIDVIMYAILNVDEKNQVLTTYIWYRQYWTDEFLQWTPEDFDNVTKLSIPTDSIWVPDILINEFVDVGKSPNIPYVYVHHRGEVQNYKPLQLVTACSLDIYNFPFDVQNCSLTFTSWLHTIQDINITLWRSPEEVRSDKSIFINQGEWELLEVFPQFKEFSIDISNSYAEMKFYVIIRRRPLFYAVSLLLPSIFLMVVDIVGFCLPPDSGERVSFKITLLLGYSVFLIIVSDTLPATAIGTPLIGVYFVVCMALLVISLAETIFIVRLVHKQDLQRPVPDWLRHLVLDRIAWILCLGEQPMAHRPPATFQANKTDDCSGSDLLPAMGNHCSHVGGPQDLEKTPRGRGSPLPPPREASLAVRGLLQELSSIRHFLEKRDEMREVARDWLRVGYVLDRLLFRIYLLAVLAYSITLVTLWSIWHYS
T1 sequence (Q9JHJ5 22-437 partner): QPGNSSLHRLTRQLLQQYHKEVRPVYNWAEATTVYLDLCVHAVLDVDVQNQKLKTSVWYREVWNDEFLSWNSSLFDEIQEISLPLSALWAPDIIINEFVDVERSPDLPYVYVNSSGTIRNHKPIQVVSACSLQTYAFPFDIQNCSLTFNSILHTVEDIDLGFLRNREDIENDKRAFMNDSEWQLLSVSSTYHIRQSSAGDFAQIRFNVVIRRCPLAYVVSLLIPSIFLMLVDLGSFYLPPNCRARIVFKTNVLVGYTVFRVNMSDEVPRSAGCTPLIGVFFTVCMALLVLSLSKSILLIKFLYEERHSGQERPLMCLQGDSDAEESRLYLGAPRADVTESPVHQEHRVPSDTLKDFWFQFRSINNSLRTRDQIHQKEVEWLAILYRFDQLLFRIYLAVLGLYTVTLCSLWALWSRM
Experimental: (§1) IBAs were cultured in DMEM supplemented with 10% FBS and P/S in a humidified atmosphere of 5% CO2 at 37° C.^32. After reaching 95% confluence, the cells were induced to differentiate using DMEM with 10% FBS, 0.5 μg/mL insulin, 1 nM T3, 0.125 mM indomethacin, 2 μg/mL dexamethasone, 0.5 μM IBMX and P/S (day 0). After two days, the medium was replaced with DMEM supplemented with 10% FBS, 0.5 μg/mL insulin, 1 nM T3 and P/S (day 2), and it was changed every two days from days 4 to 8. We confirmed that these cell lines are free from Mycoplasma infection.
Differentiated IBAs were treated with 1 uM ondansetron or 100 nM m-CPBG or 1 uM CL-316243 for 15 min. 1 uM […] was used as a positive control. The cAMP competitive ELISA (Promega) was performed according to the manufacturer's instruction. Briefly, cAMP was extracted by adding 0.1 M HCl with 0.5% triton X-100 to the cells. After centrifugation at 600 g for 10 min, the supernatant was used for the determination of cAMP levels by competitive cAMP ELISA.

[2] = target: T1, Htr3; experiment: Real-time PCR of thermogenic genes in IBAs; type: cell-based; settings: 2 h after Htr3 agonist treatment
Experimental: as §1
Total RNA was extracted from the mouse tissues or cell lines using TRIzol reagent (Invitrogen) according to the manufacturer's protocol. After TURBO DNase (Invitrogen) treatment, 2 μg of total RNA was used to generate complementary DNA with Superscript III reverse transcriptase (Invitrogen). To analyze gene expression, real-time PCR was performed with a ViiA 7 Real-Time PCR system (Applied Biosystems) and the Power SYBR Green PCR master mix (Applied Biosystems). Relative quantification was based on the ddCt method, and ActB was used as an endogenous control (internal control).

[3] = target: T1, Htr3; experiment: Western blot for phosphorylation of PKA pathway components in IBAs; type: cell-based; settings: IBAs, Htr3 agonist treatment
Experimental: as §1
Whole-cell lysates were extracted by incubating cells in RIPA buffer (25 mM Tris-HCl pH 7.6, 150 mM NaCl, 1% NP-40, 1% sodium deoxycholate, 0.1% SDS) plus protease inhibitors (Roche). Supernatant was collected following a brief centrifuge, and protein concentrations in the supernatant were determined using the BCA Protein Assay Kit (Thermo Scientific, Rockford, Ill., USA). The cell lysates were then mixed with equal volumes of 2× Laemmli buffer (4% SDS, 20% glycerol, 10% 2-mercaptoethanol, 0.01% bromophenol blue, and 120 mM Tris-HCl, pH 6.8) and boiled for 5 min at 95° C. Then, the protein samples were separated by SDS-PAGE and transferred to a PVDF membrane (Millipore). […]

[4] = Glucose tolerance test and insulin tolerance test; type: in vivo, mice; settings: LP-533401 30 mg/kg orally, 10 weeks, HFD-fed mice vs HFD-fed control
Experimental: For the glucose tolerance tests, the mice were administered 2 g/kg D-glucose in PBS after overnight fasting. For the insulin tolerance tests, the mice were intraperitoneally injected with insulin (0.75 U/kg) after being fasted for 4 h. The blood glucose levels in blood samples obtained from tail veins 0, 15, 30, 45, 60, 90 and 120 min after injection were measured using a Gluco DR Plus glucometer (Allmedicus).

[5] = reference 18; cited from earlier work
[6] = High-fat-diet-induced obesity in mice: growth curves, body weight and eWAT mass; type: in vivo; settings: LP-533401 30 mg/kg orally daily, 10 weeks, SCD or HFD
Excerpt: The generation of Tph^flox/flox mice, Adipoq-cre mice, and aP2-CreERT2 mice has previously been reported^17,30,31. C57BL/6J mice, Htr3a-targeted KO mice (B6.129X1-Htr3a^tm1jul/J, Htr3a KO) and leptin-deficient ob/ob mice (B6.V-Lep^ob/J) were purchased from the Jackson Laboratory (Bar Harbor, Me., USA). To create the adipose tissue-specific Tph1 KO mice, Tph1^flox/flox mice were crossed with Adipoq-Cre mice (Tph1 FKO mice) and aP2-CreERT2 mice (Tph1 AFKO mice). The mice were housed in climate-controlled, specific pathogen-free (SPF) barrier facilities under a 12-h light-dark cycle, and chow and water were provided ad libitum. The Institutional Animal Care and Use Committee at the Korea Advanced Institute of Science and Technology approved the experimental protocols for this study. Htr3a KO mice and Tph1^flox/flox mice were backcrossed with C57BL/6J mice for more than 10 generations. Cre-recombination of 6-week-old Tph1 AFKO mice was induced by intraperitoneal (IP) injection of 5 doses of 2 mg of tamoxifen (Sigma) for 1 week. We fed male mice (aged 8˜10 weeks) either on SCD (standard chow diet; 12% fat calories, Purina Laboratory Rodent Diets 38057) or HFD (60% fat calories, Research Diets D12492). PBS or 300 mg/kg PCPA was administered as a daily intraperitoneal injection. LP-533401 was dissolved in PEG-400 and 5% dextrose (40:60 ratio). Vehicle or 30 mg/kg LP-533401 was administered daily with a feeding needle. We randomly divided C57BL/6J mice into 2-4 groups. For transgenic mice, we compared data between KO mice and their WT littermates. No blinding was done.

Structure (SMILES) | cAMP level in the absence of β3AR agonist [1] | Ucp1 mRNA level [2] | phosphorylation of HSL and PKA substrate [3] | glucose tolerance (IPGTT) [4] | crossing of the blood-brain barrier [5] | anti-obesity effects (growth curves) [6]
N=C(N)NC(=N)Nc1cccc(Cl)c1 [m-CPBG, 1-(m-chlorophenyl)-biguanide] | did not affect cAMP levels | decreased | decreased |  |  | 
Nc1nc(OC(c2ccc(-c3cccc(F)c3)cc2)C(F)(F)F)cc(-c2ccc(C[C@H](N)C(=O)O)cc2)n1 (stereo partly drawn) [LP-533401] |  |  |  | improved glucose tolerance | cannot cross the blood-brain barrier | also observed
